pIC50: −log10 of the molar value.
Legend:
Assay type in all cases: cell-based
human TLR8 = biological target: T1, human TLR8 (Homo sapiens, UniProt Q9NR97); test: TLR8 inhibition reporter assay (HEK-Blue cells, SEAP reporter, R848 stimulation); settings: HEK-Blue cells overexpressing human TLR8, SEAP reporter, R848 15.9 μM; read-out: TLR8 IC50
T1 construct: host or cells: HEK-Blue cells
T1 sequence (Q9NR97 27-1041): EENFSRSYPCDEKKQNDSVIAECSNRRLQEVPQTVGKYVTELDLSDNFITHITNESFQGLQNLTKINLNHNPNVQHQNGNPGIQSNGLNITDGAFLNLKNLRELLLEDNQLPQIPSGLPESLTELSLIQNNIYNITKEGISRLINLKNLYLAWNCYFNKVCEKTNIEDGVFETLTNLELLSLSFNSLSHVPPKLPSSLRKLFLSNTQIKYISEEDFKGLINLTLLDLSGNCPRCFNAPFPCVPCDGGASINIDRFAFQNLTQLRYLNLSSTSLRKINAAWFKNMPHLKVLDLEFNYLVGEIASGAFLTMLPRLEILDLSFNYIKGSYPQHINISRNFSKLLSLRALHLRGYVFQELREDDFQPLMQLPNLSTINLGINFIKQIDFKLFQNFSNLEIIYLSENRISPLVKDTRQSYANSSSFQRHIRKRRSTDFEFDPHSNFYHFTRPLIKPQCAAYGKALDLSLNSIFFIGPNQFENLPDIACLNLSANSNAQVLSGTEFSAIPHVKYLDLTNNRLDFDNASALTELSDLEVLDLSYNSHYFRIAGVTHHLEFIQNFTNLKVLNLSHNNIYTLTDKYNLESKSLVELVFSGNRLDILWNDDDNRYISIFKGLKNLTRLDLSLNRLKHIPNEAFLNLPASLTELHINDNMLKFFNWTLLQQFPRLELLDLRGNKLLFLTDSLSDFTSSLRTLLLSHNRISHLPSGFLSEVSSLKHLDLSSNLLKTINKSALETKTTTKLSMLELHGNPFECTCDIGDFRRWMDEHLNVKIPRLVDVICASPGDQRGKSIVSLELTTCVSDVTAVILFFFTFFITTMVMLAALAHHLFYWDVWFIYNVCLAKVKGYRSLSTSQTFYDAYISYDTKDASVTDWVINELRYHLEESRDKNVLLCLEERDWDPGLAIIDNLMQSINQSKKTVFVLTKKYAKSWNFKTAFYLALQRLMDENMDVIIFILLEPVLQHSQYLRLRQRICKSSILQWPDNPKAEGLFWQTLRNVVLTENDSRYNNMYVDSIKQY
Outline: (§1)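 Compound treatment: 30 min, RT, 0.05 nM–50 μM final. Agonist: TLR7 gardiquimod 7.5 μM; TLR8 R848 15.9 μM; TLR9 ODN2006 5 nM. Incubation 22 h, 37 °C, 5% CO2. Readout SEAP, HEK-Blue Detection.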

human TLR9 = biological target: T2, human TLR9 (Homo sapiens, UniProt Q9NR96); test: TLR9 inhibition reporter assay (HEK-Blue cells, SEAP reporter, ODN2006 stimulation); settings: HEK-Blue cells overexpressing human TLR9, SEAP reporter, ODN2006 5 nM
T2 construct: host or cells: HEK-Blue cells
T2 sequence (Q9NR96 26-1032): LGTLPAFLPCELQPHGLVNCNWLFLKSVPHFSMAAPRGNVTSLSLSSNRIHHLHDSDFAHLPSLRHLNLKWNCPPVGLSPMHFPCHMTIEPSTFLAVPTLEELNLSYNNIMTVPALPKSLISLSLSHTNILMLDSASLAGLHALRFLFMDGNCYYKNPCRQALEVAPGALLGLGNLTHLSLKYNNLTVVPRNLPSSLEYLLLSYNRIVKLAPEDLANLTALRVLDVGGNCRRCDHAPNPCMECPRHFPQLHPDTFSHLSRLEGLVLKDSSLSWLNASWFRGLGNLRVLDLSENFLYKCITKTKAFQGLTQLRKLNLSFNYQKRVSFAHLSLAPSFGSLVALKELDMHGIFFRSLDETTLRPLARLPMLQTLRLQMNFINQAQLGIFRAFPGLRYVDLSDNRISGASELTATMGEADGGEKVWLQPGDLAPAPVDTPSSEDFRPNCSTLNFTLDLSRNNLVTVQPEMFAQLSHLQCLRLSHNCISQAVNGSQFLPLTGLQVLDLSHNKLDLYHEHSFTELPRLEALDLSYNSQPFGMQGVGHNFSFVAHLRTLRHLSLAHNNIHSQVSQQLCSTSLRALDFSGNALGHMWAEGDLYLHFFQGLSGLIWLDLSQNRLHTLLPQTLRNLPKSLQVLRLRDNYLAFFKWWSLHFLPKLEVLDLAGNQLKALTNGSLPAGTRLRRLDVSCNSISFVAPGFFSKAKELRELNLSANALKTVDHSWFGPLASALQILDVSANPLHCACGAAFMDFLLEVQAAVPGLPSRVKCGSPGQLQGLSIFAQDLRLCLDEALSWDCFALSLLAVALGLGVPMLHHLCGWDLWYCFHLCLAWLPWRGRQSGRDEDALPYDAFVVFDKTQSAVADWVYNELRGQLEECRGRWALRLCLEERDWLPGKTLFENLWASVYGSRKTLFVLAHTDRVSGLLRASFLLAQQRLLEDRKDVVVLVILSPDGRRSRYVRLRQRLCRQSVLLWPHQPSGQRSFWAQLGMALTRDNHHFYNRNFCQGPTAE
Outline: as §1

human TLR7 = biological target: T3, human TLR7 (Homo sapiens, UniProt Q9NYK1); test: TLR7 inhibition reporter assay (HEK-Blue cells, SEAP reporter, gardiquimod stimulation); settings: HEK-Blue cells overexpressing human TLR7, SEAP reporter, gardiquimod 7.5 μM; read-out: TLR7 IC50
T3 construct: host or cells: HEK-Blue cells
T3 sequence (Q9NYK1 27-1049): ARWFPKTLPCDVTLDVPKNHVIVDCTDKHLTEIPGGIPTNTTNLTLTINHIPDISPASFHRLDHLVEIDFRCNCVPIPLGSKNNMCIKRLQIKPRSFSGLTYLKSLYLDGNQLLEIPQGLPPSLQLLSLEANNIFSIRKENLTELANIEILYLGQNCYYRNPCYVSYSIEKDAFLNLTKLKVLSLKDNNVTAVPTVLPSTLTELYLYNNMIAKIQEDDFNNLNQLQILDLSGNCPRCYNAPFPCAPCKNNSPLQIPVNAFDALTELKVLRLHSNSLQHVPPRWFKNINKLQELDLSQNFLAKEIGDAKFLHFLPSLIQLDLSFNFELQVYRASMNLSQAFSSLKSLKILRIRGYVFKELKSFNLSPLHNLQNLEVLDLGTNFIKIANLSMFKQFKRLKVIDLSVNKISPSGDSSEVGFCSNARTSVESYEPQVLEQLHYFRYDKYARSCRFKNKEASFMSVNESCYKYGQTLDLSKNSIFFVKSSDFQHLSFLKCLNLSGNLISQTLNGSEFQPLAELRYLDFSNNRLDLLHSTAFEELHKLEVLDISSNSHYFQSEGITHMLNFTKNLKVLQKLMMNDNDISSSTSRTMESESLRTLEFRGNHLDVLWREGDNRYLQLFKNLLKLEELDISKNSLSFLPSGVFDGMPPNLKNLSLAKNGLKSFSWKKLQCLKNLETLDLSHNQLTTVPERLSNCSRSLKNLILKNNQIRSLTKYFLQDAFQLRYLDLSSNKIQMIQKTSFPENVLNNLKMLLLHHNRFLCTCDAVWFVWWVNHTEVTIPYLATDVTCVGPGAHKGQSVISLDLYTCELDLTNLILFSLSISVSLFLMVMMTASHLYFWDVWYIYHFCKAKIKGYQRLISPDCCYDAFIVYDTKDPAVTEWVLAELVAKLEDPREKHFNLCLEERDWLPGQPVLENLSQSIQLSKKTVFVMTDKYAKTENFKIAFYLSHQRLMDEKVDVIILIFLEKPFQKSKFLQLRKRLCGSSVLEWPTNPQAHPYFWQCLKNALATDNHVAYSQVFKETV
Outline: as §1

Row | Structure (SMILES) | pIC50 (human TLR8) | pIC50 (human TLR9) | pIC50 (human TLR7)
1 | Cc1c(-c2[nH]c3sc(N4CCN(C5CCOCC5)C[C@@H]4C)nc3c2C(C)C)cn2ncnc2c1C [Example 350, (S)-5-(7,8-dimethyl-[1,2,4]triazolo[1,5-a]pyridin-6-yl)-6-isopropyl-2-(2-methyl-4-(tetrahydro-2H-pyran-4-yl)piperazin-1-yl)-4H-pyrrolo[3,2-d]thiazole] | 9.92 | 4.66 | 8.09
2 | Cc1c(-c2[nH]c3sc(C4CCC(N5CC(O)(C(F)(F)F)C5)CC4)nc3c2C(C)C)cn(C)c(=O)c1C (single isomer, unassigned) [Example 267, 5-(2-(4-(3-hydroxy-3-(trifluoromethyl)azetidin-1-yl)cyclohexyl)-6-isopropyl-4H-pyrrolo[3,2-d]thiazol-5-yl)-1,3,4-trimethylpyridin-2(1H)-one] | 8.15 | < 4.30 | 7.61
3 | Cc1c(-c2[nH]c3sc(C4CCC(N5CCOCC5)CC4)nc3c2C(C)C)cn2ncnc2c1C (single isomer, unassigned) [Example 212, 4-(4-(5-(7,8-dimethyl-[1,2,4]triazolo[1,5-a]pyridin-6-yl)-6-isopropyl-4H-pyrrolo[3,2-d]thiazol-2-yl)cyclohexyl) morpholine] | 9.20 | 5.13 | 9.21
4 | Cc1c(-c2[nH]c3sc(C4CCN(C(C)C)CC4)nc3c2C(C)C)cn2ncnc2c1C [Example 44, 5-(7,8-dimethyl-[1,2,4]triazolo[1,5-a]pyridin-6-yl)-6-isopropyl-2-(1-isopropylpiperidin-4-yl)-4H-pyrrolo[3,2-d]thiazole] | 9.20 | 4.82 | 8.77

Further molecules by rising pIC50 (human TLR8), results first:

Row | pIC50 (human TLR8) | pIC50 (human TLR9) | pIC50 (human TLR7) | Structure (SMILES)
5 | 7.47 | 5.41 | 8.53 | COc1cc(-c2[nH]c3sc(C4CCC(N5CC6(CCOCC6)C5)CC4)nc3c2C(C)C)cn2ncnc12 (single isomer, unassigned) [Example 111, 2-(4-(6-isopropyl-5-(8-methoxy-[1,2,4]triazolo[1,5-a]pyridin-6-yl)-4H-pyrrolo[3,2-d]thiazol-2-yl)cyclohexyl)-7-oxa-2-azaspiro[3.5]nonane]
6 | 8.43 | 5.18 | 8.96 | CCC(CC)CN1CCC(c2nc3c(C(C)C)c(-c4cn5ncnc5c(C)c4C)[nH]c3s2)CC1 [Example 54, 5-(7,8-dimethyl-[1,2,4]triazolo[1,5-a]pyridin-6-yl)-2-(1-(2-ethylbutyl)piperidin-4-yl)-6-isopropyl-4H-pyrrolo[3,2-d]thiazole]
7 | 8.45 | 4.82 | 8.14 | Cc1cc2ncnn2cc1-c1[nH]c2sc(C3CCC(NC4(C)COC4)CC3)nc2c1C(C)C (single isomer, unassigned) [Example 144, N-(4-(6-isopropyl-5-(7-methyl-[1,2,4]triazolo[1,5-a]pyridin-6-yl)-4H-pyrrolo[3,2-d]thiazol-2-yl)cyclohexyl)-3-methyloxetan-3-amine]
8 | 8.84 | 5.18 | 9.24 | COc1cc(-c2[nH]c3sc(C4CCC(NC5(C)COC5)CC4)nc3c2C(C)C)cn2ncnc12 (single isomer, unassigned) [Example 70, N-(4-(6-isopropyl-5-(8-methoxy-[1,2,4]triazolo[1,5-a]pyridin-6-yl)-4H-pyrrolo[3,2-d]thiazol-2-yl)cyclohexyl)-3-methyloxetan-3-amine]
9 | 9.08 | 5.04 | 9.05 | COc1cc(-c2[nH]c3sc(C4CCC(NCC(C)(C)O)CC4)nc3c2C(C)C)cn2ncnc12 (single isomer, unassigned) [Example 84, 1-((4-(6-isopropyl-5-(8-methoxy-[1,2,4]triazolo[1,5-a]pyridin-6-yl)-4H-pyrrolo[3,2-d]thiazol-2-yl)cyclohexyl)amino)-2-methylpropan-2-ol]

From patent US20230139171A1 (SITA Information Networking Computing UK Limited, priority 2019, published 2023)
